Our source for the ED50 values is US3937818A, “Benzylamine narcotic antagonists” (American Home Products Corporation, priority 1974, dated 1976).

In general, ED50 refers to the dose at which the effect has come halfway, by size or by number of responders.

The test system of this test is Morphine Induced Loss of Righting Reflex. Put plainly: Antagonism of Morphine Induced Loss of Righting Reflex. The class given is in vivo, male Charles River rats. As to conditions: Rattus norvegicus, im; rats; morphine base 75 mg/kg subcutaneously; antagonist intramuscularly 40 minutes after the morphine; measured at 20 minute intervals for 2 hours; read-out: ED50 (dose for 50 percent reversal of the loss of righting reflex). The procedure: Groups of three male Charles River rats (160 to 200 g.) were dosed subcutaneously with morphine base at 75 mg/kg. The degree of narcosis was measured at 15 and 30 minutes after injection. Criterion was loss of righting reflex. Antagonists were administered 40 minutes after the morphine. The degree of antagonism was measured at 20 minute intervals for 2 hours. Nalorphine at 2 mg/kg. served as a positive control while one group of morphinized rats in each determination received no antagonist and served as negative controls. Compounds were dissolved in water or suspended in Tween-80 and water and were administered intramuscularly. Each dose of the antagonist was tested in a minimum of three experiments. At least three doses of each antagonist was used to determine the ED50. For each experiment the degree of reversal, by the antagonist, of the loss of righting reflex induced by morphine was calculated in the following manner. The total number of periods of loss of righting reflex in the experimental group was divided by the total number of periods of loss of righting reflex in the control group. This number was converted to percent and subtracted from 100 to give percent reversal of loss of righting reflex. The dose for which a 50 percent reversal of the loss of righting reflex was observed is the ED50.

As to `CN(C)C(c1cccc(O)c1)[C@@H]1CCCC[C@@H]1OCc1ccccc1` (single isomer, unassigned) [(l)-α-dimethylamino-α-(cis-2-benzyloxycyclohexyl)-m-cresol], the ED50 came out at 0.35 mg/kg.

As to `CN(C)C(c1cccc(O)c1)[C@@H]1CCCC[C@@H]1OCc1ccccc1` (stereo partly drawn) [(dl)-α-dimethylamino-α-(cis-2-benzyloxycyclohexyl)-m-cresol], the median effective dose (ED50) was 0.95 mg/kg.

As for `CCO[C@@H]1CCCC[C@@H]1C(c1cccc(O)c1)N(C)C` (stereo partly drawn) [(dl)-α-dimethylamino-α-(cis-2-ethoxycyclohexyl)-m-cresol], the ED50 amounted to 2 mg/kg.

For the compound `C=CCN1CC[C@]23c4c5ccc(O)c4O[C@H]2[C@@H](O)C=C[C@H]3[C@H]1C5` [Nalorphine, reference compound], the ED50 is 1 mg/kg.
